ChEMBL document CHEMBL1201862, “PubChem BioAssay data set” (2004)
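Grown in 96-well plates, cells were treated for 48 hours with each compound at five concentrations. Insufficient inhibition: endpoint recorded as highest concentration tested. GI50 is the concentration that inhibits growth by half.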 Calls of active or inactive are those of the source. Rule as the data show it: active = GI50 up to about 1.1 µM and inactive = higher. Residues, ends and D or L forms follow the SMILES beside them. *: point of attachment. Fmoc = O=C(OCC1c2ccccc2-c2ccccc21)*; Boc = CC(C)(C)OC(=O)*

Key:
Test in all cases: growth of human tumour cells (NCI), 48 h
[1] = test system: NCI-H460
[2] = test system: KM12
[3] = test system: SNB-19
[4] = test system: M14
[5] = test system: OVCAR-8
[6] = test system: SK-MEL-28
[7] = test system: SNB-75
[8] = test system: LOX IMVI
[9] = test system: CCRF-CEM
[10] = test system: A549
[11] = test system: 786-0
[12] = test system: HCT-116
[13] = test system: SN12C
[14] = test system: LXFL 529
[15] = test system: UO-31
[16] = test system: NCI-H226
[17] = test system: DU-145
[18] = test system: MDA-MB-231
[19] = test system: PC-3
[20] = test system: MDA-N

Measured: GI50

CC1CCC2(OC1)OC1CC3C4CCC5CC(O)CCC5(C)C4CC(=O)OC3(C)C1C2C (stereo not given)
inactive: [1] > 100 µM | [2] > 100 µM | [3] > 100 µM | [4] > 100 µM | [5] > 100 µM | [6] > 100 µM | [7] > 100 µM | [8] > 100 µM | [9] > 100 µM | [10] > 100 µM | [11] > 100 µM | [12] > 100 µM | [13] > 100 µM | [14] > 100 µM | [15] > 100 µM

COc1cc(C(O)C(=O)c2nc3ccc([N+](=O)[O-])cc3nc2O)ccc1O (stereo not given)
inactive: [1] > 100 µM | [2] > 100 µM | [3] > 100 µM | [4] > 100 µM | [5] > 100 µM | [6] 26.4 µM | [8] 40.1 µM | [16] > 100 µM | [9] 40.7 µM | [10] 98.9 µM | [11] > 100 µM | [12] > 100 µM | [13] > 100 µM | [14] 35.8 µM | [15] > 100 µM

Cc1ccc(C)c(NC(=O)/C(=N\NC(N)=S)C(C#N)c2ccccc2)c1 (stereo not given)
inactive: [1] > 100 µM | [2] > 100 µM | [3] > 100 µM | [4] > 100 µM | [5] > 100 µM | [6] > 100 µM | [7] > 100 µM | [16] > 100 µM | [9] > 100 µM | [10] > 100 µM | [11] > 100 µM | [12] > 100 µM | [13] > 100 µM | [14] > 100 µM | [15] > 100 µM

O=C(c1ccccc1)C(c1ccccc1)C1(O)C(=O)Nc2ccc([N+](=O)[O-])cc21 (stereo not given)
inactive: [1] > 100 µM | [3] > 100 µM | [4] > 100 µM | [5] > 100 µM | [6] > 100 µM | [7] 61 µM | [8] 69.7 µM | [16] > 100 µM | [9] 41.9 µM | [10] > 100 µM | [11] > 100 µM | [12] > 100 µM | [13] 62.4 µM | [14] 32.9 µM | [15] 47.6 µM

COC(=O)C12C3C4C1C1C2C3C41C(=O)N(C(C)C)C(C)C (stereo not given)
inactive: [1] > 100 µM | [2] > 100 µM | [3] > 100 µM | [4] > 100 µM | [5] > 100 µM | [6] > 100 µM | [7] 50.2 µM | [16] > 100 µM | [9] > 100 µM | [10] > 100 µM | [11] > 100 µM | [12] > 100 µM | [13] > 100 µM | [14] > 100 µM | [15] > 100 µM

[N-]=[N+]=N/C1=C/CCCCC(=O)C1
inactive: [1] > 100 µM | [3] > 100 µM | [4] > 100 µM | [5] > 100 µM | [6] > 100 µM | [7] > 100 µM | [8] > 100 µM | [9] > 100 µM | [10] > 100 µM | [11] > 100 µM | [13] > 100 µM | [14] > 100 µM | [15] > 100 µM

[O-][n+]1c2cc3c(cc2[n+]([O-])c2c(O)cccc21)CN(CCN1CCOCC1)C3
inactive: [1] 7.18 µM | [2] 16.8 µM | [3] 73.5 µM | [4] 49.5 µM | [5] 12.1 µM | [6] > 100 µM | [7] 89.1 µM | [16] 41.9 µM | [9] 6.12 µM | [10] 34.9 µM | [11] 16.8 µM | [12] 11.4 µM | [13] 29 µM | [14] 14.1 µM | [15] 10.6 µM

O=C(CC(C(=O)c1ccsc1)c1cccs1)c1cccs1 (stereo not given)
inactive: [1] 49 µM | [3] > 100 µM | [4] 59.3 µM | [5] 83.8 µM | [6] > 100 µM | [7] 28.1 µM | [8] 68.2 µM | [16] > 100 µM | [9] 43.1 µM | [10] 42.6 µM | [11] > 100 µM | [12] 43.4 µM | [13] 65.8 µM | [14] 38.5 µM | [15] 28.1 µM

NC1=NC(=O)C(CC(=O)Nc2ccc(Cl)cc2Cl)S1 (stereo not given)
inactive: [1] > 100 µM | [2] > 100 µM | [3] > 100 µM | [4] > 100 µM | [5] > 100 µM | [6] > 100 µM | [7] > 100 µM | [8] > 100 µM | [9] 5.13 µM | [10] > 100 µM | [11] > 100 µM | [13] > 100 µM | [14] > 100 µM | [15] > 100 µM

CC(=O)O[C@H]1C=CC23OC(=O)[C@]1(C)[C@H]2[C@H](C(=O)O)C12CC(=O)[C@@](CO)(CC[C@H]13)C2
inactive: [1] > 100 µM | [2] > 100 µM | [3] > 100 µM | [4] > 100 µM | [5] > 100 µM | [6] > 100 µM | [8] > 100 µM | [16] > 100 µM | [9] > 100 µM | [10] > 100 µM | [11] > 100 µM | [12] > 100 µM | [13] > 100 µM | [14] > 100 µM | [15] > 100 µM

CC(C)(C)OC(=O)NCCCCC(NC(=O)C(Cc1c[nH]c2ccccc12)NC(=O)OCC1c2ccccc2-c2ccccc21)C(=O)N1CCCC1C(=O)NCC(N)=O (stereo not given) (Fmoc-WK(Boc)PG-NH2; configuration not given here)
inactive: [1] > 100 µM | [2] > 100 µM | [3] > 100 µM | [4] 60.5 µM | [5] > 100 µM | [6] > 100 µM | [7] > 100 µM | [17] > 100 µM | [8] > 100 µM | [16] > 100 µM | [9] > 100 µM | [10] > 100 µM | [11] > 100 µM | [12] > 100 µM | [13] > 100 µM | [18] 42.5 µM | [19] > 100 µM | [20] > 100 µM | [15] > 100 µM

O=C1NC2(CCCCC2)C(=O)N1CCN(CCCl)CCCl [SPIROMUSTINE]
inactive: [1] 61.5 µM | [2] 199 µM | [3] 187 µM | [4] > 25 µM | [5] 129 µM | [6] 97.5 µM | [7] 173 µM | [17] > 25 µM | [8] 104 µM | [16] > 250 µM | [9] 45.8 µM | [10] 135 µM | [11] > 25 µM | [12] 190 µM | [13] 112 µM | [18] > 25 µM | [19] > 25 µM | [20] > 25 µM | [15] 218 µM
